The results in this text go back to US20200247815A1, “PYRAZOLYL-CONTAINING TRICYCLIC DERIVATIVE, PREPARATION METHOD THEREFOR AND USE THEREOF” (Jiangsu Hansoh Pharmaceutical Group Co., Ltd., priority 2017, published 2020).

Molecules are shown by their SMILES. pIC50: −log10 of the molar value.

For experiment [1], the target named is T1, ERK-1 kinase (Homo sapiens, UniProt P27361).
T1 construct: purchased Invitrogen PV3311
Briefly: Inhibition of ERK-1 kinase activity (LANCE Ultra TR-FRET). The settings on record: ERK1 enzyme 0.4 nM, ATP 38.15 μM. The class given is biochemical. Here is the method: (§1) The object of this test example is to determine the inhibition effect of the compound on ERK-1 kinase activity. In vitro ERK-1 kinase analysis was carried out by using LANCE Ultra (Perkin Elmer) method. The reaction (reaction system 10 μL) was conducted by adding 2.5 μL of test compound/DMSO (final 4%, V/V, diluted to 10 concentrations (400 nM to 0.02 nM) using a 1:3 dilution scheme), 5 μL of a mixed solution of ERK1 enzyme (Invitrogen, # PV3311, final concentration: 0.4 nM) and substrate Ulight-MBP peptide (Perkin Elmer, # TRF0109-M, final concentration: 0.5 μM) formulated with a kinase buffer (50 mM Hepes pH 7.4, 10 mM MgCl2, 1 mM EGTA, 0.01% Triton X-100, 2 mM DTT) and 2.5 μL of ATP solution (Invitrogen, # PV3227, final concentration: 38.15 μM) formulated with the same buffer successively to a 384-well plate (Perkin Elmer OPTIPLATE™) and mixing well. The reaction mixture was incubated at room temperature for 60 minutes. The reaction was stopped by adding 1× LANCE Detection buffer (PerkinElmer # CR97-100) diluted with ultra-pure water, mM EDTA (Invitrogen #15575038) and 1 nM Eu-anti-p-MBP (PerkinElmer # TRF0201-M) antibody in 10 μL/well. The plate was incubated at room temperature for 60 minutes. Excitation reading was performed on Synergy H1 Hybird Reader, H1MFD (Biotek) with an excitation wavelength of 320 nm. TR-FRET rate was calculated by dividing the acceptor emission signal (signal value at 665 nM) by the Eu donor emission signal (signal value at 615 nM). The inhibition TR-FRET rate of the well treated by the compound was calculated relative to the Max signal (DMSO control) and Min signal (no enzyme added) control wells on the plate {% inhibition rate=100−[(test compound−Min average)]/(Max average−Min average)×100}. The 10 concentrations of the compound after 4-fold dilution of the reaction system were 100 nM to 0.005 nM. Abs_IC50 value was calculated by using GraphPad prism fits percentage inhibition rate and ten-point concentration data in a 4-parameter non-linear logic formula.
In general terms: Time-resolved FRET reads energy transfer from a long-lived donor to a nearby acceptor.

For experiment [2], the target named is T2, ERK-2 kinase (Homo sapiens, UniProt P28482).
T2 construct: purchased Invitrogen PV3313
The experiment can be described thus: Inhibition of ERK-2 kinase activity (LANCE Ultra TR-FRET). The class given is biochemical. The settings on record: ERK-2 enzyme 0.08 nM, ATP 38.15 μM. Here is the method: as §1, with “ERK-2” for “ERK-1”, “ERK-2” for “ERK1”, “PV3313,” for “PV3311,”, “0.08” for “0.4”, “EGTA” for “EGTA,”, “IX” for “1×”

Experiment [3] relates to pancreatic cancer tumor cell Mia Paca 2. The experiment can be described thus: Inhibition of tumor cell proliferation (CellTiter-Glo). The class given is cell-based. Conditions: Homo sapiens, Miapaca-2 cell, 3-7 days. Here is the method:
The object of this test example is to determine the inhibition effect of the present compound on tumor cell proliferation activity. The inhibition activity of the compound on tumor cell proliferation was determined by CellTiter-Glo method, and the half inhibitory concentration IC50 of the compound for inhibiting cell proliferation activity was obtained, 50-100 μL of tumor cell suspension was inoculated in a 96-well cell culture plate with a density of 1˜5*10^4 cells/ml. The plate was incubated in an incubator for 16˜24 hours (37° C., 5% CO2). Solutions of test compounds at different concentrations obtained by gradient dilution were added to the cells in the plate. The plate was incubated in an incubator for 3-7 days (37° C., 5% CO2), 50˜100 μL of CellTiter-Glo reagent was added to each well. The plate was shaked for 10 minutes, and left to stand at room temperature for 10 minutes. The value of the chemiluminescence signal was determined by a microplate reader. The inhibition rate was calculated from the value of the chemiluminescence signal. IC50 of the compound was obtained by curve fitting based on the inhibition rate at different concentrations.
The inhibition effect of the present compound on pancreatic cancer tumor cell Mia Paca 2 proliferation activity was determined by the test, and the obtained IC50 value is shown in Table 2.
In general terms: ATP-based viability assays read luminescence as a measure of living cells.

T2 sequence (P28482 whole entry): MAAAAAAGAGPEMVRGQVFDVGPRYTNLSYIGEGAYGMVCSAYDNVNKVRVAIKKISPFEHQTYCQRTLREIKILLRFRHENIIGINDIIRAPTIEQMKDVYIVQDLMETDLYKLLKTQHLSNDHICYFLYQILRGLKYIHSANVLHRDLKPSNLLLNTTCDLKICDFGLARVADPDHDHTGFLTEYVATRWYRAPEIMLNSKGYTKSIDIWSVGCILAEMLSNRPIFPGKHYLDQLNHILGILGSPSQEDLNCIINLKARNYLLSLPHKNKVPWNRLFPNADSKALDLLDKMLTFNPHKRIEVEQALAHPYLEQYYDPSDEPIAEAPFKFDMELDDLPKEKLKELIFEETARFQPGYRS
T1 sequence (P27361 whole entry): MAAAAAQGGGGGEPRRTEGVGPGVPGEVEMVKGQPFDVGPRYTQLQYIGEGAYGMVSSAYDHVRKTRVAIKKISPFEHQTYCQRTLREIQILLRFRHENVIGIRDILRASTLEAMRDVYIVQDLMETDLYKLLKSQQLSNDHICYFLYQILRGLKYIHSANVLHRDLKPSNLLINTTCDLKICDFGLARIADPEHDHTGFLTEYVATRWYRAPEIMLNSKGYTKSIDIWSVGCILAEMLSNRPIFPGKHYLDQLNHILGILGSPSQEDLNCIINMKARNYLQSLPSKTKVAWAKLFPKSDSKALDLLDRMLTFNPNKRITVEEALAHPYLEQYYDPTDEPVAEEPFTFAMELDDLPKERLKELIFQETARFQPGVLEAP

For `C[C@@H](NC(=O)c1nc2cc3c(-c4ccncc4)n[nH]c3cc2[nH]1)c1cccc(Br)c1` [Example 18, (R)—N-(1-(3-bromophenyl)ethyl)-3-(pyridin-4-yl)-1,7-dihydroimidazo[4,5-f]indazole-6-carboxamide], the values for the pIC50 in experiment [1], in experiment [2] and in experiment [3] were 9.35, 9.29 and 6.96, respectively.
As for `C[C@H](CNC(=O)c1nc2cc3c(-c4ccncc4)n[nH]c3cc2[nH]1)c1ccccc1` [Example 67, (S)—N-(2-phenylpropyl)-3-(pyridin-4-yl)-1,7-dihydroimidazo[4,5-f]indazole-6-carboxamide], the pIC50 in experiment [1] is 8.84; in experiment [2], 9.16.
The corresponding values for `O=C(NC(CCO)c1ccccc1)c1nc2cc3c(-c4ccncc4)n[nH]c3cc2[nH]1` (stereo not shown) [Example 71, N-(3-hydroxy-1-phenylpropyl)-3-(pyridin-4-yl)-1,7-dihydroimidazo[4,5-f]indazole-6-carboxamide] are 8.66 and 9.10.
The corresponding values for `O=C(CNC(=O)c1nc2cc3c(-c4ccncc4)n[nH]c3cc2[nH]1)c1ccccc1` [Example 72, N-(2-oxo-2-phenylethyl)-3-(pyridin-4-yl)-1,7-dihydroimidazo[4,5-f]indazole-6-carboxamide] are 8.60 and 9.62.
The corresponding values for `O=C(NNc1ccccc1)c1nc2cc3c(-c4ccncc4)n[nH]c3cc2[nH]1` [Example 76, N′-phenyl-3-(pyridin-4-yl)-1,7-dihydroimidazo[4,5-f]indazole-6-carbohydrazide] are 9.60 and 10.10.
Turning to `CN(NC(=O)c1nc2cc3c(-c4ccncc4)n[nH]c3cc2[nH]1)c1ccccc1` [Example 77, N′-methyl-N′-phenyl-3-(pyridin-4-yl)-1,7-dihydroimidazo[4,5-f]indazole-6-carbohydrazide], the pIC50 in experiment [1] was 8.66; in experiment [2] it was 9.07.
The corresponding values for `COC(CNC(=O)c1nc2cc3c(-c4ccncc4)n[nH]c3cc2[nH]1)c1ccccc1` (stereo not shown) [Example 78, N-(2-methoxy-2-phenylethyl)-3-(pyridin-4-yl)-1,7-dihydroimidazo[4,5-f]indazole-6-carboxamide] are 9.19 and 9.68.
On to `COc1ccc(-c2n[nH]c3cc4[nH]c(C(=O)N[C@H](C)c5ccccc5)nc4cc23)cn1` [Example 84, (R)-3-(6-methoxypyridin-3-yl)-N-(1-phenylethyl)-1,7-dihydroimidazo[4,5-f]indazole-6-carboxamide], for which the figures for the negative logarithm of the IC50 (pIC50) in experiment [1] and in experiment [2] were 8.58 and 9.03, respectively.
The corresponding values for `CC(C)Oc1ccc(-c2n[nH]c3cc4[nH]c(C(=O)N[C@H](C)c5ccccc5)nc4cc23)cn1` [Example 85, (R)-3-(6-isopropoxypyridin-3-yl)-N-(1-phenylethyl)-1,7-dihydroimidazo[4,5-f]indazole-6-carboxamide] are 8.46 and 8.51.
The corresponding values for `COc1cc(-c2n[nH]c3cc4[nH]c(C(=O)N[C@H](C)c5ccccc5)nc4cc23)ccn1` [Example 86, (R)-3-(2-methoxypyridin-4-yl)-N-(1-phenylethyl)-1,7-dihydroimidazo[4,5-f]indazole-6-carboxamide] are 8.62 and 8.88.
The corresponding values for `C[C@@H](NC(=O)c1nc2cc3c(-c4ccncc4)n[nH]c3cc2[nH]1)c1cccc(C2CC2)c1` [Example 88, (R)—N-(1-(3-cyclopropylphenyl)ethyl)-3-(pyridin-4-yl)-1,7-dihydroimidazo[4,5-f]indazole-6-carboxamide] are 8.64 and 9.00.
As to `O=C(N[C@H](CNCC(F)F)c1ccccc1)c1nc2cc3c(-c4ccncc4)n[nH]c3cc2[nH]1` [Example 89, (S)—N-(2-((2,2-difluoroethyl)amino)-1-phenylethyl)-3-(pyridin-4-yl)-1,7-dihydroimidazo[4,5-f]indazole-6-carboxamide], the pIC50 in experiment [1] was 8.88; in experiment [2], 9.06.
`CN(C)C[C@@H](NC(=O)c1nc2cc3c(-c4ccncc4)n[nH]c3cc2[nH]1)c1ccccc1` [Example 90, (S)—N-(2-(dimethylamino)-1-phenylethyl)-3-(pyridin-4-yl)-1,7-dihydroimidazo[4,5-f]indazole-6-carboxamide]: the pIC50 in experiment [1] was 8.75; in experiment [2], 8.78.
The corresponding values for `C[C@@H](NC(=O)c1nc2cc3c(C4=CCC(=O)CC4)n[nH]c3cc2[nH]1)c1ccccc1` [Example 94, (R)-3-(4-oxocyclohex-1-en-1-yl)-N-(1-phenylethyl)-1,7-dihydroimidazo[4,5-f]indazole-6-carboxamide] are 8.65 and 8.23.
The corresponding values for `COc1ccc(-c2n[nH]c3cc4[nH]c(C(=O)N[C@H](C)c5ccccc5)nc4cc23)cc1` [Example 95, (R)-3-(4-methoxyphenyl)-N-(1-phenylethyl)-1,7-dihydroimidazo[4,5-f]indazole-6-carboxamide] are 8.35 and 8.66.
The corresponding values for `C[C@@H](NC(=O)c1nc2cc3c(-c4cc[n+]([O-])cc4)n[nH]c3cc2[nH]1)c1ccccc1` [Example 97, (R)-4-(6-((1-phenylethyl)carbamoyl)-1,7-dihydroimidazo[4,5-f]indazol-3-yl)pyridine-N-oxide] are 9.12 and 9.52.
In the case of `CC(C)c1cccc([C@@H](C)NC(=O)c2nc3cc4c(-c5ccncc5)n[nH]c4cc3[nH]2)c1` [Example 98, (R)—N-(1-(3-Isopropylphenyl)ethyl)-3-(pyridin-4-yl)-1,7-dihydroimidazo[4,5-f]indazole-6-carboxamide], the negative logarithm of the IC50 (pIC50) is 8.48 in experiment [1] and 8.99 in experiment [2].
The corresponding values for `O=C(NCc1ccccc1)c1nc2cc3c(-c4ccncc4)n[nH]c3cc2[nH]1` [Example 114, N-benzyl-3-(pyridin-4-yl)-1,7-dihydroimidazo[4,5-f]indazole-6-carboxamide] are 8.54 and 8.97.

For orientation: pIC50 means the negative decadic logarithm of the IC50, by convention in mol/L.
